The values below are quoted from earlier work in the CATMoS acute toxicity set (Mansouri et al. 2021).

Where “and” joins values, the source holds several entries; their conditions need not be identical. Equal entries are not always repeated.

A short description of the series: rat acute oral toxicity. To be noted: in vivo.
What is called LD50 is the dose expected to kill half of the subjects tested. For the compound `C[C@@H]1CC=CC=CC=CC=C[C@H](O[C@@H]2O[C@H](C)[C@@H](O)[C@H](N)[C@@H]2O)C[C@@H]2O[C@](O)(C[C@@H](O)C[C@H]3O[C@@H]3C=CC(=O)O1)C[C@H](O)[C@H]2C(=O)O`, the LD50 is 2730 mg/kg.
With `CCCSc1nc(Cl)c([N+](=O)[O-])c(Cl)n1`, the LD50 is 300 mg/kg.
Regarding `Fc1cc(F)c2nc(C(F)(F)F)[nH]c2c1F`, the LD50 is 2.29 mg/kg.
Turning to `CC1NC(=S)NC1=O` (stereo not given), the LD50 is 1050 mg/kg.
For `CC(C)CC(CCN(C(C)C)C(C)C)(C(N)=O)c1ccccn1` (stereo not given), the LD50 was 1100 mg/kg.
As to `O=C(OCC1CO1)c1ccccc1` (stereo not given), the LD50 is 1410 mg/kg.
Turning to `CN(C)CCN(CCN(C)C)n1cc(-c2ccccc2)c2ccccc21`, the LD50 is 1250 mg/kg.
Turning to `C[N+]1(CCC(C2=CCCCC2)c2ccccc2)CCCCC1` (stereo not given), the LD50 is 1700 mg/kg.
Regarding `FC(F)(F)c1nc2c(C(F)(F)F)cc(Cl)cc2[nH]1`, the LD50 is 1.66 mg/kg.
With `C=COCCOCCO`, the LD50 is 4930 mg/kg.
Consider `CCCC(CCC)C(=O)O[C@H]1C[C@H]2CC[C@@H](C1)[N+]2(C)C`, for which the LD50 is 705 mg/kg.
On to `Cc1ncc(CS)c(CO)c1O`, for which the LD50 was 3000 mg/kg.
`N#CSCCSC#N`: the LD50 is 50 mg/kg.
As for `O=C1CCCCCC=CCCCCCCCCO1`, the LD50 was 339 mg/kg.
With `CC(C)COc1ccc2ccccc2c1`, the LD50 was 5930 mg/kg.
Turning to `Cn1c(=O)c2c(ncn2CCCCCN2CCN(c3cccc(C(F)(F)F)c3)CC2)n(C)c1=O`, the LD50 was 660 mg/kg.
Consider `CC(C(=O)O)c1ccc(CC2CCCC2=O)cc1` (stereo not given), for which the LD50 is 145 mg/kg.
In the case of `COCc1c(CO)cnc(C)c1O`, the LD50 was 2150 mg/kg.
On to `Cc1cc(Cl)ccc1OCCCC(=O)O`, for which the LD50 is 700 mg/kg.
As for `CO[C@H]1CC[C@H](O[C@@H]2C[C@]3(C[C@H](O)[C@@H](C)[C@@H]([C@@H](C)C=C(C)C(=O)[C@H](C)C[C@H](C)C(=O)O)O3)O[C@]2(C)[C@H]2CC[C@@H](C)C3(O[C@@H]([C@@H]4O[C@](O)(CO)[C@@H](C)C[C@H]4C)C[C@@H]3C)O2)O[C@@H]1C` (stereo not given in full), the LD50 was 7.5 mg/kg.
For the compound `Cc1nc2cnc3ccccc3c2s1`, the LD50 was 900 mg/kg and 950 mg/kg.
As for `CCC(C(=O)O)c1ccc(N2Cc3ccccc3C2=O)cc1` (stereo not given), the LD50 was 373 mg/kg.
`CC/C=C\CCOCC=O`: the LD50 is 4100 mg/kg.
`NC(=O)CC[C@H](N)C(=O)O`: the LD50 was 7500 mg/kg.
Take `CCN(COC(C)=O)N=O`: the LD50 is 810 mg/kg.
For the compound `CCCCCCCCn1sccc1=O`, the LD50 was 550 mg/kg.
In the case of `CCNC1C2CCC(C2)C1c1ccccc1` (stereo not given), the LD50 is 83 mg/kg.
With `O=[N+]([O-])c1cc(Cl)c2nc(C(F)(F)F)[nH]c2c1`, the LD50 is 9.87 mg/kg.
As to `CN1CCCN(C)C1=O`, the LD50 was 1770 mg/kg.
`CCCCOC(=O)C(Cl)(Cl)Oc1ccccc1`: the LD50 is 1500 mg/kg.
For the compound `FC(F)(F)C(F)(F)C(F)(F)C(F)(F)C(F)(F)C(F)(F)C(F)(F)C[n+]1ccccc1`, the LD50 is 1160 mg/kg.
Consider `C/C(=C1\CCOC(=O)S1)N(C=O)Cc1cnc(C)nc1N`, for which the LD50 is 7600 mg/kg.
In the case of `CNC(=O)Oc1ccc(C)c(C)c1`, the LD50 is 290 mg/kg.
In the case of `CCOP(=O)(OCC)SC=C(Cl)Cl`, the LD50 was 1.75 mg/kg.
As for `CC(C)(Oc1ccc(Cl)cc1)C(=O)O`, the LD50 was 897 mg/kg.
As for `CCCCCCCCCCCCCCCCCC[N+](C)(C)CC(O)CCl` (stereo not given), the LD50 was 2590 mg/kg.
For `C/C=C1/C[C@@H](C)[C@](O)(CO)C(=O)OCC2=CC[N+]3([O-])CC[C@@H](OC1=O)[C@@H]23` (stereo not given in full), the LD50 is 48 mg/kg.
Turning to `Nc1ccc(O)c(Cc2cc(N)ccc2O)c1`, the LD50 was 25 mg/kg.
For the compound `CC1Oc2ccccc2CC1N(C)C` (stereo not given), the 50% lethal dose (LD50) is 812 mg/kg.
In the case of `COP(=S)(OC)Oc1cc(C)c(SC)c(C)c1`, the LD50 is 1000 mg/kg.
Consider `CCCCCCCCCN(CCCCCCCCC)CCCCCCCCC`, for which the median lethal dose (LD50) is 5600 mg/kg.
With `CCCCCCC(=O)OCCOCCOCCOCCOC(=O)CCCCCC`, the LD50 is 25000 mg/kg.
In the case of `CC(C)=CC1C(C(=O)Cl)C1(C)C` (stereo not given), the LD50 is 400 mg/kg.
As to `c1ccc(C2CN3CCSC3=N2)cc1` (stereo not given), the LD50 is 180 mg/kg and 480 mg/kg.
With `C=CCC(CC)(CC)C(N)=O`, the LD50 is 400 mg/kg.
Turning to `CC(C)(C)NCC(O)c1ccc(O)c(CO)n1` (stereo not given), the LD50 is 2800 mg/kg.
With `COc1cc(NC(=O)OCCCN2CCN(c3ccccc3)CC2)cc(OC)c1OC`, the LD50 is 900 mg/kg.
As to `C#CCOP(=O)(OCCC)c1ccccc1` (stereo not given), the 50% lethal dose (LD50) was 362 mg/kg.
Regarding `Cc1cc(Cl)ccc1/N=C/N(C)C`, the LD50 is 225 mg/kg.
Consider `Clc1cc2oc3c(Cl)c(Cl)c(Cl)cc3c2cc1Cl`, for which the LD50 is 0.916 mg/kg.
`C[N+]1(C)CCCCC1`: the LD50 is 270 mg/kg and 464 mg/kg.
On to `CCC/C=C/CO`, for which the median lethal dose (LD50) was 3500 mg/kg.
Regarding `CC[N+](CC)(CC)CC`, the LD50 was 2630 mg/kg.
Turning to `C/C(=N/Nc1nc(C)cc(C)n1)c1ccccc1C`, the LD50 was 525 mg/kg.
With `Oc1c(Cl)cc(Cl)cc1Sc1cc(Cl)cc(Cl)c1O`, the LD50 is 492 mg/kg.
Take `Cc1n[nH]c(=O)c2noc(C)c12`: the LD50 was 1000 mg/kg.
`CC(C(C)(C)C)C(C)(C)SSSC(C)(C)C(C)C(C)(C)C` (stereo not given): the LD50 is 19600 mg/kg.
As to `Nc1ccc2ccc3cccc4ccc1c2c34`, the LD50 is 1070 mg/kg.
With `CC(C)(Oc1ccc(Cl)cc1)C(=O)OCCCOC(=O)C(C)(C)Oc1ccc(Cl)cc1`, the LD50 is 7300 mg/kg.
`Cc1nn(C)c2c1NCc1ccccc1O2`: the LD50 is 1360 mg/kg.
